Laboratory results as given in PubChem BioAssay (NCI).
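Each compound was tested at five concentrations against cells in 96-well plates for 48 hours. TGI is the concentration that stops growth completely.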

How the values were obtained:
Assay in all cases: growth of human tumour cells (NCI), 48 h
786-0 renal = tested on: 786-0 renal
A498 renal = tested on: A498 renal
A549 NSCLC = tested on: A549 NSCLC
ACHN renal = tested on: ACHN renal
BT-549 breast = tested on: BT-549 breast
CAKI-1 renal = tested on: CAKI-1 renal
CCRF-CEM leukemia = tested on: CCRF-CEM leukemia
COLO 205 colon = tested on: COLO 205 colon
DU-145 prostate = tested on: DU-145 prostate
EKVX NSCLC = tested on: EKVX NSCLC
HCC-2998 colon = tested on: HCC-2998 colon
HCT-116 colon = tested on: HCT-116 colon
HCT-15 colon = tested on: HCT-15 colon
HL-60(TB) leukemia = tested on: HL-60(TB) leukemia
HOP-62 NSCLC = tested on: HOP-62 NSCLC
HOP-92 NSCLC = tested on: HOP-92 NSCLC
HS 578T breast = tested on: HS 578T breast
HT29 colon = tested on: HT29 colon
IGROV1 ovarian = tested on: IGROV1 ovarian
K-562 leukemia = tested on: K-562 leukemia
KM12 colon = tested on: KM12 colon
LOX IMVI melanoma = tested on: LOX IMVI melanoma
M14 melanoma = tested on: M14 melanoma
MALME-3M melanoma = tested on: MALME-3M melanoma
MCF7 breast = tested on: MCF7 breast
MDA-MB-231 breast = tested on: MDA-MB-231 breast
MDA-MB-435 = tested on: MDA-MB-435
MDA-N = tested on: MDA-N
MOLT-4 leukemia = tested on: MOLT-4 leukemia
NCI-H226 lung = tested on: NCI-H226 lung
NCI-H23 lung = tested on: NCI-H23 lung
NCI-H460 lung = tested on: NCI-H460 lung
NCI-H522 lung = tested on: NCI-H522 lung
NCI/ADR-RES ovarian = tested on: NCI/ADR-RES ovarian
OVCAR-3 ovarian = tested on: OVCAR-3 ovarian
OVCAR-4 ovarian = tested on: OVCAR-4 ovarian
OVCAR-5 ovarian = tested on: OVCAR-5 ovarian
OVCAR-8 ovarian = tested on: OVCAR-8 ovarian
PC-3 prostate = tested on: PC-3 prostate
RPMI-8226 leukemia = tested on: RPMI-8226 leukemia
RXF 393 renal = tested on: RXF 393 renal
SF-268 CNS = tested on: SF-268 CNS
SF-295 CNS = tested on: SF-295 CNS
SF-539 CNS = tested on: SF-539 CNS
SK-MEL-2 melanoma = tested on: SK-MEL-2 melanoma
SK-MEL-28 melanoma = tested on: SK-MEL-28 melanoma
SK-MEL-5 melanoma = tested on: SK-MEL-5 melanoma
SK-OV-3 ovarian = tested on: SK-OV-3 ovarian
SN12C renal = tested on: SN12C renal
SNB-19 CNS = tested on: SNB-19 CNS
SNB-75 CNS = tested on: SNB-75 CNS
SR leukemia = tested on: SR leukemia
SW-620 colon = tested on: SW-620 colon
T-47D breast = tested on: T-47D breast
TK-10 renal = tested on: TK-10 renal
U251 CNS = tested on: U251 CNS
UACC-257 melanoma = tested on: UACC-257 melanoma
UACC-62 melanoma = tested on: UACC-62 melanoma
UO-31 renal = tested on: UO-31 renal

Measured: TGI

C[N+](C)(CCNC(=O)c1cccc2cc3ccccc3nc12)Cc1ccc([N+](=O)[O-])cc1
> 100 µM: all assays above

COc1ccc(SCc2cc(OC)c(OC)c(OC)c2)cc1OC
> 86.4 µM: A498 renal
83.3 µM: HOP-92 NSCLC
> 90.1 µM: SK-OV-3 ovarian
> 69.1 µM: SK-MEL-2 melanoma
> 70.5 µM: SNB-75 CNS
63.1 µM: MDA-MB-435
> 31.6 µM: T-47D breast
34.7 µM: SK-MEL-5 melanoma
> 100 µM: all other assays above
